ChEMBL document CHEMBL3621142, “Discovery and Evaluation of Clinical Candidate AZD3759, a Potent, Oral Active, Central Nervous System-Penetrant, Epidermal Growth Factor Receptor Tyrosine Kinase Inhibitor” (J Med Chem, 2015)

What was measured:
[1] = Fraction unbound in Han Wistar rat blood at 5 uM by equilibrium dialysis method; format: ADME, tissue-based; conditions: Han Wistar
[2] = Fraction unbound in Han Wistar rat brain at 5 uM by equilibrium dialysis method; format: ADME, tissue-based; conditions: Han Wistar, brain
[3] = system: Rattus norvegicus; experiment: (§1) Oral bioavailability in Han Wistar rat at 2 mg/kg; format: ADME, organism-based; conditions: in vivo
[4] = AUC (0 to 7 hrs) in Han Wistar rat brain at 2 mg/kg, po by LC-MS/MS analysis; format: ADME, organism-based; design: dose 2 mg/kg, time < 7 hr, route oral; conditions: Han Wistar, brain
[5] = (§2) AUC (0 to 7 hrs) in Han Wistar rat CSF at 2 mg/kg, po by LC-MS/MS analysis; format: ADME, organism-based, Cerebrospinal fluid; design: time < 7 hr, dose 2 mg/kg, route oral; conditions: Han Wistar, CSF
[6] = AUC (0 to 7 hrs) in Han Wistar rat blood at 2 mg/kg, po by LC-MS/MS analysis; format: ADME, organism-based; design: dose 2 mg/kg, time < 7 hr, route oral; conditions: Han Wistar, blood
[7] = Ratio of unbound AUC (0 to 7 hrs) in brain to blood of Han Wistar rat at 2 mg/kg, po by LC-MS/MS analysis; format: ADME, organism-based; conditions: Han Wistar, brain and blood, read-out: K(p,uu,brain)
[8] = Ratio of unbound AUC (0 to 7 hrs) in CSF to blood of Han Wistar rat at 2 mg/kg, po by LC-MS/MS analysis; format: ADME, organism-based; conditions: for Kp uu: Han Wistar, CSF and blood
[9] = Elimination half life in Han Wistar rat at 1 mg/kg, iv; format: ADME, organism-based; conditions: Han Wistar, in vivo, read-out: beta t1/2 (converted)
[10] = Clearance in Han Wistar rat at 1 mg/kg, iv; format: ADME, organism-based; conditions: in vivo
[11] = Volume of distribution at steady state in Han Wistar rat at 1 mg/kg, iv; format: ADME, organism-based; conditions: Han Wistar, in vivo, read-out: Vdss
[12] = AUC(0 to 24 hrs) in Han Wistar rat at 2 mg/kg, po; format: ADME, organism-based; design: dose 2 mg/kg, time < 24 hr, route oral; conditions: Han Wistar, in vivo
[13] = Permeability from apical to basolateral side in MDCK2-MDR1 cells; format: ADME, cell-based, Canis lupus familiaris, MDCK-II; conditions: dog, MDCK-MDR1
[14] = system: MDR1 (P-gp); experiment: Efflux ratio of permeability from basolateral to apical side over apical to basolateral side in MDCK2-MDR1 cells; format: ADME, cell-based, Canis lupus familiaris; conditions: dog, MDCK-MDR1
[15] = biological target: Epidermal growth factor receptor (Homo sapiens, UniProt P00533, L858R); format: cell-based, H3255
Epidermal growth factor receptor, sequence (P00533 25-1210 L858R limits assumed): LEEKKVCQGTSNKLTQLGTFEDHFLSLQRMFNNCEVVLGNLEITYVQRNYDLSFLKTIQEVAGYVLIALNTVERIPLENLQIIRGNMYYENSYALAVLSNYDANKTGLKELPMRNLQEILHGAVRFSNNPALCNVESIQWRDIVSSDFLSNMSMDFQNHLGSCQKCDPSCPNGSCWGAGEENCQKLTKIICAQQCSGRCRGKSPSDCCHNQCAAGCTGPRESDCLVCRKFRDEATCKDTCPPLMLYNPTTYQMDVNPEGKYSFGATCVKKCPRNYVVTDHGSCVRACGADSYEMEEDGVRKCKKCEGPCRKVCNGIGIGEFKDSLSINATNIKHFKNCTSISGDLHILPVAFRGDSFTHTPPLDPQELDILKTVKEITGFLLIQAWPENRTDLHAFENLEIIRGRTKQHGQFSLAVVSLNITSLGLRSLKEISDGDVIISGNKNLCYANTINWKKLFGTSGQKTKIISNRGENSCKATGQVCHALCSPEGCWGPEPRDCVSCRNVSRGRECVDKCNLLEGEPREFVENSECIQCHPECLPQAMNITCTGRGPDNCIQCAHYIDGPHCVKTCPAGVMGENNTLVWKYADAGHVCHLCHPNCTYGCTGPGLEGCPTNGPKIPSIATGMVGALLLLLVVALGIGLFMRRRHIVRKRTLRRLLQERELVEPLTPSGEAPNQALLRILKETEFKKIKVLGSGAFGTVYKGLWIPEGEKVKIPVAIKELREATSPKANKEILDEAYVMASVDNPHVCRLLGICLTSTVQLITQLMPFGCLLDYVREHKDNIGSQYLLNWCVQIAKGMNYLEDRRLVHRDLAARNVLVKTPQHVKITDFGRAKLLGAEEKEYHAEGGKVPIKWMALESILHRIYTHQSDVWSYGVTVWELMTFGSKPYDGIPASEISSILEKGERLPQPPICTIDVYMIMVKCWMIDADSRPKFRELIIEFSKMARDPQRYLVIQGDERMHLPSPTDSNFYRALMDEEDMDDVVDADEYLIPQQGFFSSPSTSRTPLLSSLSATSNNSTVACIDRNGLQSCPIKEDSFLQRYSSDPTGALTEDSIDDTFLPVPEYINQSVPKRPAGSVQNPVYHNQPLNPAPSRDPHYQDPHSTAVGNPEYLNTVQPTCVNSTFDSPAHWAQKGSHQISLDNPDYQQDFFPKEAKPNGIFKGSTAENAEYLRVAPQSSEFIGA

[16] = system: Cerebrospinal fluid; experiment: as §2; format: ADME, organism-based; design: time < 7 hr, dose 2 mg/kg, route oral; conditions: in vivo, 7 h, BLD = below limit of detection
[17] = system: BCRP; experiment: Permeability from apical to basolateral side in BCRP transfected MDCK2 cells; format: ADME, cell-based, Canis lupus familiaris, MDCK-II; conditions: dog
[18] = Ratio of unbound AUC (0 to 24 hrs) in brain to blood of Han Wistar rat at 20 mg/kg, po by LC-MS/MS analysis; format: ADME, organism-based; conditions: brain and blood, read-out: K(p,uu,brain)
[19] = Ratio of unbound AUC (0 to 24 hrs) in CSF to blood of Han Wistar rat at 20 mg/kg, po by LC-MS/MS analysis; format: ADME, organism-based; conditions: CSF and blood
[20] = system: BCRP; experiment: in vitro; conditions: dog
Description: Efflux ratio of permeability from basolateral to apical side over apical to basolateral side in BCRP transfected MDCK2 cells

[21] = as §1; format: ADME, organism-based; conditions: Han Wistar, in vivo
[22] = AUC(0 to 24 hrs) in Han Wistar rat at 5 mg/kg, po; format: ADME, organism-based; design: dose 5 mg/kg, time < 24 hr, route oral; conditions: in vivo
[23] = Tmax in Han Wistar rat at 5 mg/kg, po; format: ADME, organism-based; conditions: in vivo
[24] = Cmax in Han Wistar rat at 5 mg/kg, po; format: ADME, organism-based; design: dose 5 mg/kg, route oral; conditions: in vivo
[25] = AUC(0 to 24 hrs) in Han Wistar rat at 1 mg/kg, iv; format: ADME, organism-based; design: time < 24 hr, dose 1 mg/kg, route intravenous; conditions: in vivo
[26] = Oral bioavailability in Han Wistar rat at 5 mg/kg; format: ADME, organism-based; conditions: in vivo
[27] = Drug metabolism in rat hepatocytes assessed as piperazine oxidation; format: ADME, cell-based, Hepatocyte

Compound | fraction unbound at 5 µM [1] | fraction unbound at 5 µM [2] | AUC(0-t) at 7 h [4] [µM·h] | AUC(0-t) at 7 h [5] [µM·h] | AUC(0-t) at 7 h [6] [µM·h] | Kp uu [7] | Kp uu [8] | half-life [9] [h] | clearance [10] [mL/min/kg] | Vd [11] [L/kg] | Papp A→B [13] [×10⁻⁶ cm/s] | efflux ratio [14] | IC50 [15] [nM] | also measured
COc1cc2ncnc(Nc3cccc(Cl)c3F)c2cc1OC(=O)N1CCN(C)C2CC21 (stereo in doubt; 1i) | 0.028 | 0.019 | 0.585 | 0.019 | 0.786 | 0.51 | 0.9 | 0.9 | 28 | 2 | 67 | – | – | F [3]: 52%; AUC(0-t) at 24 h [12]: 1.57 µM·h
COc1cc2ncnc(Nc3cccc(Cl)c3F)c2cc1OC(=O)N1C[C@@H]2C[C@H]1CN2C | 0.134 | 0.016 | 0.332 | – | 0.454 | 0.086 | – | – | – | – | 14 | 0.39 | 2.3 | AUC [16]: BLD; K(p,uu,CSF) ([8]; csf, BLD = below limit of detection): BLD
CN(C)C/C=C/C(=O)Nc1cc2c(Nc3ccc(F)c(Cl)c3)ncnc2cc1O[C@H]1CCOC1 [AFATINIB] | 0.041 | 0.0054 | – | – | – | – | – | – | – | – | 2.5 | 11 | – | Papp A→B [17]: 1.3 ×10⁻⁶ cm/s; Kp uu [18]: 0.0066; Kp uu [19]: 0.27; efflux ratio [20]: 59
COc1cc2ncnc(Nc3cccc(Cl)c3F)c2cc1OC(=O)N1CCN(C)[C@H](C)C1 | 0.064 | 0.018 | 0.417 | 0.007 | 0.404 | 0.28 | 0.28 | 1.3 | 55 | 3.2 | 54 | 0.94 | 21.5 | bioavailability [21]: 92%; AUC(0-t) at 24 h [12]: 1.04 µM·h
COc1cc2ncnc(Nc3cccc(Cl)c3F)c2cc1C(=O)N1CCOCC1 | 0.17 | 0.088 | 0.101 | 0.046 | 1.63 | 0.03 | 0.16 | – | – | – | 28 | 2.9 | 166 | –
COc1cc2ncnc(Nc3cccc(Cl)c3F)c2cc1N1CCOCC1 | 0.058 | 0.022 | 0.085 | 0.002 | 0.033 | 0.96 | 0.93 | – | – | – | 32 | 0.29 | 1.5 | –
COc1cc2ncnc(Nc3cccc(Cl)c3F)c2cc1OC(=O)N1CC[C@H](N(C)C)C1 | 0.049 | 0.024 | 0.798 | 0.068 | 2.48 | 0.15 | 0.56 | – | – | – | 17 | 0.34 | 2.7 | –
COc1cc2ncnc(Nc3cccc(Cl)c3F)c2cc1OC(=O)N1CCN(C)CC1 | 0.084 | 0.025 | 0.825 | 0.031 | 0.722 | 0.34 | 0.52 | 2.6 | 22 | 1.8 | 28 | 0.37 | 5 | AUC(0-t) at 24 h [22]: 3.91 µM·h; Tmax [23]: 0.25 h; Cmax [24]: 2020 nM; AUC(0-t) at 24 h [25]: 1.71 µM·h; bioavailability [26]: 45%; Drug metabolism [27]: metabolite_detected
COc1cc2ncnc(Nc3ccc(F)c(Cl)c3)c2cc1N1CCOCC1 | 0.022 | 0.0083 | 0.085 | 0.001 | 0.077 | 0.42 | 0.79 | – | – | – | 29 | 0.18 | 1.5 | –
